Data taken from patent US9657088B2, “Anti-HSV antibody” (priority 2009, dated 2017).
“Also recorded” adds a separate entry of the source.

How the values were obtained:
HSV-2 G = test: Virus neutralization end-point dilution assay on Vero cells, 100 TCID50; assay type: cell-based; conditions: 100% reduction of CPE, 72 h
Method: (§1) Neutralizing activity of antibodies were determined by a standard end-point dilution assay using Vero cells grown as monolayers in microtiter plates. […] After 72 h incubation at 37° C. the antibody concentration required to prevent the formation of virus-induced CPE to 100% was determined as complete neutralization titer.
(§2) Neutralizing activity of antibodies was determined by end-point dilution assay as described previously (16). Briefly, serial dilutions of antibodies were incubated with 100 TCID50 of HSV-1 or HSV-2 for 1 h at 37° C. in cell culture medium. The antibody virus inoculum was applied to Vero cell monolayers grown in microtiter plates and cytopathic effect (CPE) was scored after 72 h incubation at 37° C. The antibody concentration required for reducing virus-induced CPE by 100% was determined as complete neutralization titer. […] For control purposes virus without antibody and antibody alone was used to induce maximal CPE or no CPE, respectively.

HSV-1 F [1] = test: as above; assay type: cell-based; conditions: Table 4, read-out: concentration required for 50% neutralization
Method: as §1, §2

HSV-1 F [2] = test: Passive immunization of NOD/SCID mice 24 h before intravaginal HSV-1 challenge; assay type: in vivo
Method: Mice were infected intravaginally with 1×10^6 TCID50/20 μl of the neurovirulent HSV-1 strain F. Infected mice with symptoms of weight loss, vulvitis/vaginitis or neurological diseases were killed, and their organs examined for infectious virus by titration on Vero cell monolayers as described previously. Non-infected mice were killed at day 30. Animals per group n=7.
Animals per group n=7 for PBS, n=9 all other groups.
Anesthetized female nonobese diabetic/severe combined immunodeficient (NOD-SCID) mice (NOD.CB17-Prkdc^scid/J, Charles River Laboratories, Research Models and Services, Sulzfeld, Germany), 6-8 weeks of age, were challenged intravaginally with 20 μl inoculum of 1×10^6 TCID50 HSV-1 F per mouse. Skin glue (Epiglu, Meyer-Haake Medical Innovations, Wehrheim, Germany) was applied onto the vulva to prevent discharge of the virus inoculum. […] Mice were examined daily after viral inoculation for loss of weight, vulvitis/vaginitis (redness, mucopurulent discharge and signs of inflammation) and neurological disease. Mice displaying any of theses symptoms were sacrificed immediately. […] Mice were assessed for infection by determination of virus titers from vaginal irrigations obtained on days 1, 2, 4, 6 and 8 after infection and at the time of death using the endpoint dilution assay on Vero cells. Viral loads in organs (spleen, adrenal gland, lung heart, liver, kidney, spinal cord, and brain) of sacrificed mice were determined after homogenization of organs by titration on Vero cell monolayers as described elsewhere (41). Each test and control group contained 9-10 animals with detectable HSV-1 infection.
Natural killer (NK) cells accumulating at the site of HSV-2 infection in humans (28) are the early source of interferon-γ (45), which plays an essential role for the control of HSV infection (2, 45, 62).

With “mAb 2c: murine monoclonal IgG2a antibody specific for glycoprotein B of HSV1 and HSV2; VH SEQ ID NO: 9, VL SEQ ID NO: 10” the “Concentration for complete neutralization of 100 TCID50” value (HSV-2 G) was 31 nM, the IC50 (HSV-1 F [1]) was 4.3 nM and the “Median survival time prolonged compared to PBS control” value (HSV-1 F [2]; 5 mg/kg i.v., 24 h prior to challenge) was 2.6 fold. The “protection against lethal encephalitis” value (HSV-1 F [2]; 15 mg/kg i.v., 24 h prior to infection) was “fully protected against lethal encephalitis; also recorded: full protection”, the “Viral titres in organs of protected mice” value (HSV-1 F [2]; 15 mg/kg, detection limit) was < 1×10^2 TCID50 and the “protection against lethal infection” value (HSV-1 F [2]; low antibody doses (2.5 mg/kg, 5 mg/kg)) was “not fully protected against lethal infection”. For the same substance, the survival (HSV-1 F [2]; single i.v. dose of 5 mg/kg, 24 h prior to infection) was “prolongs the survival”.
